Data from US5371070A, “Bicyclic GnRH antagonists and a method for regulating the secretion of gonadotropins” (The Salk Institute for Biological Studies, priority 1992, dated 1994).
Positions of bridges follow the written chain, without caps; N, C: chain ends. Non-standard residues stand in square brackets, D forms with d. Residues, ends and D or L forms follow the SMILES beside them. Phe(4-Cl) = N[C@@H](Cc1ccc(Cl)cc1)C(=O)O; dPhe(4-Cl) = N[C@H](Cc1ccc(Cl)cc1)C(=O)O; 2Nal = N[C@@H](Cc1ccc2ccccc2c1)C(=O)O; d2Nal = N[C@H](Cc1ccc2ccccc2c1)C(=O)O; d3Pal = N[C@H](Cc1cccnc1)C(=O)O; Orn = NCCC[C@H](N)C(=O)O; Dab = NCC[C@H](N)C(=O)O; Dap = NC[C@H](N)C(=O)O; βAla = NCCC(=O)O; Sar = CNCC(=O)O

System: ovulation in mature female Sprague-Dawley rats
Experiment: rat anti-ovulation assay (in vivo)
Details: for Rats Ovulating: injected about noon on day of proestrus, rats ovulating/rats treated
Excerpt: These improved bicyclic GnRH antagonists are generally characterized by a substantial ability to suppress the secretion of LH in a standard rat pituitary cell assay when administered together with a concentration of 3 nanomolar GnRH, the details of which assay are set forth in Rivier and Vale, Life Sciences, 23, 869-876 (1978). By substantial ability is meant that, at a concentration of GnRH antagonist to GnRH of about 2/1 or less, the amount of LH secreted is reduced by 50% (IDR50). Moreover, when tested in vivo in the standard rat anti-ovulation assay (Corbin et al. Endocrine Res. Commun., 2, 1 (1975)), these GnRH antagonists show complete blockage of ovulation when administered at about 200 μg or less per kilogram of body weight.
In vivo testing determines effectiveness to prevent ovulation in female rats. In this test, a specified number of mature female Sprague-Dawley rats, e.g. usually five to ten, each having a body weight from about 225 to 250 grams, is injected with a specified microgram dosage of peptide in either saline or bacteriostatic water at about noon on the day of proestrus. Proestrus is the afternoon […]. A separate female rat group is used as a control to which the peptide is not administered. Each of the control female rats ovulates on the evening of proestrus, and the number of the treated rats which ovulate is recorded. The results are set forth in the following Table A, wherein the dosages stated are in micrograms per rat.

Compound | Rats Ovulating (dosage 2.5 micrograms per rat) | Rats Ovulating (dosage 5 micrograms per rat) | Rats Ovulating (dosage 10 micrograms per rat) | also measured
CC(=O)N[C@H](Cc1ccc2ccccc2c1)C(=O)N[C@H](Cc1ccc(Cl)cc1)C(=O)N[C@H](Cc1cccnc1)C(=O)N[C@H]1CC(=O)NC[C@@H](C(N)=O)NC(=O)[C@@H]2CCCN2C(=O)[C@@H]2CCNC(=O)[C@H](CCCNC(=N)N)NC(=O)CC[C@H](NC1=O)C(=O)N[C@H](CCCNC(=N)N)C(=O)N[C@@H](CC(C)C)C(=O)N2 [Peptide 1, (Cyclo 4-10,5,5'-8)[Ac-β-D-2NAL^1, (4Cl)D--Phe^2, D-3PAL^3, Asp^4, Glu^5 (Arg), D--Arg^6, Dbu^8, Dpr^10]-GnRH] (Ac-[d2Nal][dPhe(4-Cl)][d3Pal]DE[dR]L[Dab]P[Dap]-NH2; lactam 4-10; linker 5-8 via R) | 0/4 |  |  | effectiveness to prevent ovulation of female rats (at a very low dosage): significantly effective; Rats Ovulating (dosage 1.0 micrograms per rat): 2/11; dose considered totally effective to prevent ovulation (female rats): about 50 micrograms per Kg of body weight; dose at which it should likely be effective to prevent ovulation (female rats, stated as likely): about 5 μg/Kg
CC(=O)N[C@H](Cc1ccc2ccccc2c1)C(=O)N[C@H](Cc1ccc(Cl)cc1)C(=O)N[C@H](Cc1cccnc1)C(=O)N[C@H]1CC(=O)NC[C@@H](C(N)=O)NC(=O)[C@@H]2CCCN2C(=O)[C@@H]2CCNC(=O)CNC(=O)CC[C@H](NC1=O)C(=O)N[C@H](CCCNC(=N)N)C(=O)N[C@@H](CC(C)C)C(=O)N2 [Peptide 2] (Ac-[d2Nal][dPhe(4-Cl)][d3Pal]DE[dR]L[Dab]P[Dap]-NH2; lactam 4-10; linker 5-8 via G) | 6/8 | 2/8 | 1/6 | Rats Ovulating (dosage 25 micrograms per rat): 0/3
CC(=O)N[C@H](Cc1ccc2ccccc2c1)C(=O)N[C@H](Cc1ccc(Cl)cc1)C(=O)N[C@H](Cc1cccnc1)C(=O)N[C@H]1CC(=O)NC[C@@H](C(N)=O)NC(=O)[C@@H]2CCCN2C(=O)[C@@H]2CCNC(=O)CNC(=O)C[C@H](NC1=O)C(=O)N[C@H](CCCNC(=N)N)C(=O)N[C@@H](CC(C)C)C(=O)N2 [Peptide 3] (Ac-[d2Nal][dPhe(4-Cl)][d3Pal]DD[dR]L[Dab]P[Dap]-NH2; lactam 4-10; linker 5-8 via G) |  |  | 4/6 | Rats Ovulating (dosage 25 micrograms per rat): 0/5
CC(=O)N[C@H](Cc1ccc2ccccc2c1)C(=O)N[C@H](Cc1ccc(Cl)cc1)C(=O)N[C@H](Cc1cccnc1)C(=O)N[C@H]1CC(=O)NC[C@@H](C(N)=O)NC(=O)[C@@H]2CCCN2C(=O)[C@@H]2CCNC(=O)CCNC(=O)C[C@H](NC1=O)C(=O)N[C@H](CCCNC(=N)N)C(=O)N[C@@H](CC(C)C)C(=O)N2 [Peptide 4] (Ac-[d2Nal][dPhe(4-Cl)][d3Pal]DD[dR]L[Dab]P[Dap]-NH2; lactam 4-10; linker 5-8 via βAla) | 9/14 | 7/10 | 4/5 | 
CC(=O)N[C@H](Cc1ccc2ccccc2c1)C(=O)N[C@H](Cc1ccc(Cl)cc1)C(=O)N[C@H](Cc1cccnc1)C(=O)N[C@H]1CC(=O)NC[C@@H](C(N)=O)NC(=O)[C@@H]2CCCN2C(=O)[C@@H]2CCNC(=O)CN(C)C(=O)CC[C@H](NC1=O)C(=O)N[C@H](CCCNC(=N)N)C(=O)N[C@@H](CC(C)C)C(=O)N2 [Peptide 5] (Ac-[d2Nal][dPhe(4-Cl)][d3Pal]DE[dR]L[Dab]P[Dap]-NH2; lactam 4-10; linker 5-8 via Sar) |  |  | 4/9 | 
CC(=O)N[C@H](Cc1ccc2ccccc2c1)C(=O)N[C@H](Cc1ccc(Cl)cc1)C(=O)N[C@H](Cc1cccnc1)C(=O)N[C@H]1CC(=O)NC[C@@H](C(N)=O)NC(=O)[C@@H]2CCCN2C(=O)[C@@H]2CNC(=O)[C@H](Cc3ccccc3)NC(=O)CC[C@H](NC1=O)C(=O)N[C@H](CCCNC(=N)N)C(=O)N[C@@H](CC(C)C)C(=O)N2 [Peptide 6] (Ac-[d2Nal][dPhe(4-Cl)][d3Pal]DE[dR]L[Dap]P[Dap]-NH2; lactam 4-10; linker 5-8 via F) |  |  | 6/8 | 
CC(=O)N[C@H](Cc1ccc2ccccc2c1)C(=O)N[C@H](Cc1ccc(Cl)cc1)C(=O)N[C@H](Cc1cccnc1)C(=O)N[C@H]1CC(=O)NC[C@@H](C(N)=O)NC(=O)[C@@H]2CCCN2C(=O)[C@@H]2CCNC(=O)[C@H](Cc3ccccc3)NC(=O)CC[C@H](NC1=O)C(=O)N[C@H](CCCNC(=N)N)C(=O)N[C@@H](CC(C)C)C(=O)N2 [Peptide 7] (Ac-[d2Nal][dPhe(4-Cl)][d3Pal]DE[dR]L[Dab]P[Dap]-NH2; lactam 4-10; linker 5-8 via F) | 3/10 | 1/8 | 0/9 | Rats Ovulating (dosage 1.0 micrograms per rat): 4/7
CC(=O)N[C@H](Cc1ccc2ccccc2c1)C(=O)N[C@H](Cc1ccc(Cl)cc1)C(=O)N[C@H](Cc1cccnc1)C(=O)N[C@H]1CC(=O)NC[C@@H](C(N)=O)NC(=O)[C@@H]2CCCN2C(=O)[C@@H]2CCCNC(=O)[C@H](Cc3ccccc3)NC(=O)CC[C@H](NC1=O)C(=O)N[C@H](CCCNC(=N)N)C(=O)N[C@@H](CC(C)C)C(=O)N2 [Peptide 8] (Ac-[d2Nal][dPhe(4-Cl)][d3Pal]DE[dR]L[Orn]P[Dap]-NH2; lactam 4-10; linker 5-8 via F) |  |  | 5/5 | Rats Ovulating (dosage 25 micrograms per rat): 0/8
CC(=O)N[C@H](Cc1ccc2ccccc2c1)C(=O)N[C@H](Cc1ccc(Cl)cc1)C(=O)N[C@H](Cc1cccnc1)C(=O)N[C@H]1CC(=O)NC[C@@H](C(N)=O)NC(=O)[C@@H]2CCCN2C(=O)[C@@H]2CCNC(=O)[C@H](Cc3ccccc3)NC(=O)C[C@H](NC1=O)C(=O)N[C@H](CCCNC(=N)N)C(=O)N[C@@H](CC(C)C)C(=O)N2 [Peptide 9] (Ac-[d2Nal][dPhe(4-Cl)][d3Pal]DD[dR]L[Dab]P[Dap]-NH2; lactam 4-10; linker 5-8 via F) |  |  | 0/4 | 
CC(=O)N[C@H](Cc1ccc2ccccc2c1)C(=O)N[C@H](Cc1ccc(Cl)cc1)C(=O)N[C@H](Cc1cccnc1)C(=O)N[C@H]1CC(=O)NC[C@@H](C(N)=O)NC(=O)[C@@H]2CCCN2C(=O)[C@@H]2CCCNC(=O)[C@H](Cc3ccccc3)NC(=O)C[C@H](NC1=O)C(=O)N[C@H](CCCNC(=N)N)C(=O)N[C@@H](CC(C)C)C(=O)N2 [Peptide 10] (Ac-[d2Nal][dPhe(4-Cl)][d3Pal]DD[dR]L[Orn]P[Dap]-NH2; lactam 4-10; linker 5-8 via F) | 6/6 | 0/4 |  | 
CC(=O)N[C@H](Cc1ccc2ccccc2c1)C(=O)N[C@H](Cc1ccc(Cl)cc1)C(=O)N[C@H](Cc1cccnc1)C(=O)N[C@H]1CC(=O)NC[C@@H](C(N)=O)NC(=O)[C@@H]2CCCN2C(=O)[C@@H]2CCNC(=O)[C@H](Cc3ccc4ccccc4c3)NC(=O)CC[C@H](NC1=O)C(=O)N[C@H](CCCNC(=N)N)C(=O)N[C@@H](CC(C)C)C(=O)N2 [Peptide 11] (Ac-[d2Nal][dPhe(4-Cl)][d3Pal]DE[dR]L[Dab]P[Dap]-NH2; lactam 4-10; linker 5-8 via 2Nal) |  | 1/7 | 0/4 | 
CC(=O)N[C@H](Cc1ccc2ccccc2c1)C(=O)N[C@H](Cc1ccc(Cl)cc1)C(=O)N[C@H](Cc1cccnc1)C(=O)N[C@H]1CC(=O)NC[C@@H](C(N)=O)NC(=O)[C@@H]2CCCN2C(=O)[C@@H]2CCNC(=O)[C@H](Cc3c[nH]cn3)NC(=O)CC[C@H](NC1=O)C(=O)N[C@H](CCCNC(=N)N)C(=O)N[C@@H](CC(C)C)C(=O)N2 [Peptide 12] (Ac-[d2Nal][dPhe(4-Cl)][d3Pal]DE[dR]L[Dab]P[Dap]-NH2; lactam 4-10; linker 5-8 via H) | 3/8 |  |  | Rats Ovulating (dosage 1.0 micrograms per rat): 4/4
CC(=O)N[C@H](Cc1ccc2ccccc2c1)C(=O)N[C@H](Cc1ccc(Cl)cc1)C(=O)N[C@H](Cc1cccnc1)C(=O)N[C@H]1CC(=O)NC[C@@H](C(N)=O)NC(=O)[C@@H]2CCCN2C(=O)[C@@H]2CCNC(=O)[C@H](Cc3ccc(Cl)cc3)NC(=O)CC[C@H](NC1=O)C(=O)N[C@H](CCCNC(=N)N)C(=O)N[C@@H](CC(C)C)C(=O)N2 [Peptide 14] (Ac-[d2Nal][dPhe(4-Cl)][d3Pal]DE[dR]L[Dab]P[Dap]-NH2; lactam 4-10; linker 5-8 via Phe(4-Cl)) | 3/4 | 0/6 |  | 
